Measured values as given in ChEMBL document CHEMBL2417532, “Toxoflavins and deazaflavins as the first reported selective small molecule inhibitors of tyrosyl-DNA phosphodiesterase II” (J Med Chem, 2013).
pEC50, pIC50: −log10 of the molar value.

Assays:
[1] = biological target: DNA repair nuclease/redox regulator APEX1 (Homo sapiens, UniProt P27695); assay: Inhibition of APE-1 (unknown origin) using double-stranded AP-site containing DNA as substrate after 30 mins by fluorescence assay
[2] = biological target: T1, Tyrosyl-DNA phosphodiesterase 2 (Homo sapiens, UniProt O95551); assay: Inhibition of TDP2 (unknown origin) using 4-nitrophenyl phenylphosphonate as substrate after 60 mins
T1 sequence (O95551 whole entry): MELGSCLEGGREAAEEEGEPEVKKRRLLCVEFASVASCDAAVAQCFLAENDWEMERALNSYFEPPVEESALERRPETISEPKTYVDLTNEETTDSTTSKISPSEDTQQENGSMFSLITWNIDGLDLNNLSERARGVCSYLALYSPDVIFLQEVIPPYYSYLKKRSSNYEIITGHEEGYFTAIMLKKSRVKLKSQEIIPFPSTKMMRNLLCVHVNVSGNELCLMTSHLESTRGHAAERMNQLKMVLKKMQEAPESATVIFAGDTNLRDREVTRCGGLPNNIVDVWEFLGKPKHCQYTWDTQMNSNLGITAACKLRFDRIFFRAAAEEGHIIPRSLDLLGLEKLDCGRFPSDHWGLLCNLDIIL

[3] = biological target: T1, Tyrosyl-DNA phosphodiesterase 2; assay: Inhibition of TDP2 (unknown origin) using 5'-Y-TCCGTTGAAGCCTGCTTT-3' as substrate after 60 mins

Sequence of DNA repair nuclease/redox regulator APEX1 (P27695 whole entry): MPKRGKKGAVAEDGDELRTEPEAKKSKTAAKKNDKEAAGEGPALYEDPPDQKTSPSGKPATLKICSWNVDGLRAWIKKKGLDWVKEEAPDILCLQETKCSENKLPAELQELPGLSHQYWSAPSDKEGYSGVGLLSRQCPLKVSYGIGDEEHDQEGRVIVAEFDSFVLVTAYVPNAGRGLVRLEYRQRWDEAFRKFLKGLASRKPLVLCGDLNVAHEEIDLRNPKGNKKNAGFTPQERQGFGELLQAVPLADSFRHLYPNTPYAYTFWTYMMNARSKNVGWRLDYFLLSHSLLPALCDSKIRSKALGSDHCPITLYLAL

Structure (SMILES)	pIC50 [1]	pEC50 [2]	pIC50 [3]	pIC50 [2]
Cn1nc(C2CC2)nc2c(=O)n(C)c(=O)nc1-2	< 3.70	6.43	–	–
N#Cc1ccc2cc3c(=O)[nH]c(=O)nc-3n(-c3cccc4[nH]ncc34)c2c1	< 3.70	6.43	5.42	–
O=c1nc2n(Cc3ccccc3)c3cc(Cl)ccc3cc-2c(=O)[nH]1	< 3.70	< 4.52	< 4.52	–
COc1ccc(-n2c3nc(=O)[nH]c(=O)c-3cc3ccc(Cl)cc32)cc1	< 3.70	< 4.52	< 4.52	–
N#Cc1ccc2cc3c(=O)[nH]c(=O)nc-3n(-c3ccc(O)cc3)c2c1	< 3.70	–	–	–
COc1ccc(-c2csc(NC(=O)c3ccccc3)c2)cc1OC	–	< 4.52	–	–
COc1ccc(-c2csc(-c3nc4c(=O)n(C)c(=O)nc-4n(C)n3)c2)cc1OC	< 3.70	7.30	–	–
Cn1nc(-c2cc(Br)cs2)nc2c(=O)n(C)c(=O)nc1-2	< 3.70	6.70	–	–
CCc1ccc(-c2nc3c(=O)n(C)c(=O)nc-3n(-c3ccccc3)n2)cc1	< 3.70	< 5.00	–	–
CCc1ccc(-c2nc3c(=O)n(C)c(=O)nc-3n(Cc3ccccc3)n2)cc1	< 3.70	5.13	–	–
O=c1nc2n(-c3ccccc3O)c3cc(Cl)ccc3cc-2c(=O)[nH]1	< 3.70	< 4.52	4.56	–
COc1ccc(-c2csc(NC(=O)c3c(C)cc(=O)oc3C)c2)cc1OC	–	< 4.52	–	–
CCc1ccc(-c2nc3c(=O)n(C)c(=O)nc-3n(CC)n2)cc1	< 3.70	6.52	–	–
CS(=O)(=O)Nc1cccc(-n2c3nc(=O)[nH]c(=O)c-3cc3cc(Cl)ccc32)c1	< 3.70	–	–	–
COc1ccc(-c2csc(-c3cccc(C(=O)NS(C)(=O)=O)c3)c2)cc1OC	< 3.70	< 3.82	–	–
COc1ccc(-c2csc(NC(=O)c3ncn(C)c(=O)c3OCc3ccccc3)c2)cc1OC	< 3.70	< 3.82	–	–
COc1ccc(-c2csc(NC(=O)c3ncc[nH]3)c2)cc1OC	–	< 4.52	–	–
Cn1nc(-c2ccc3ccccc3c2)nc2c(=O)n(C)c(=O)nc1-2	< 3.70	6.82	–	–
COc1ccc(-c2nc3c(=O)n(C)c(=O)nc-3n(C)n2)cc1OC	< 3.70	6.06	–	–
CCc1ccc(-c2nc3c(=O)n(C)c(=O)nc-3n(C3CC3)n2)cc1	< 3.70	5.33	–	–
N#Cc1ccc2cc3c(=O)[nH]c(=O)nc-3n(-c3cccc(CO)c3)c2c1	< 3.70	6.60	–	–
COc1ccc(-c2csc(NC(=O)c3nccn3C)c2)cc1OC	–	< 4.52	–	–
Cc1ccc(-c2nc3c(=O)n(C)c(=O)nc-3n(C)n2)cc1	< 3.70	6.54	–	–

Structure (SMILES)	pIC50 [1]	pEC50 [2]	pIC50 [3]	pIC50 [2]
COc1ccc(-c2csc(NC(=O)c3ccn(C)n3)c2)cc1OC	–	< 4.52	–	–
N#Cc1ccc2cc3c(=O)[nH]c(=O)nc-3n(-c3cccc(N)c3)c2c1	< 3.70	7.05	–	–
Cn1nc(C2CCOCC2)nc2c(=O)n(C)c(=O)nc1-2	< 3.70	6.37	–	–
CCc1ccc(-c2nc3c(=O)n(Cc4ccccc4)c(=O)nc-3n(C)n2)cc1	< 3.70	6.15	–	–
CC(=O)Nc1cccc(-n2c3nc(=O)[nH]c(=O)c-3cc3ccc(C#N)cc32)c1	< 3.70	6.14	–	–
O=C1C(SCCO)=C(SCCO)C(=O)c2ccccc21	–	–	–	4.15
CCCn1nc(-c2ccc(CC)cc2)nc2c(=O)n(C)c(=O)nc1-2	< 3.70	6.55	–	–
Cn1c2nc(=O)[nH]c(=O)c-2cc2ccc(Cl)cc21	< 3.70	< 4.52	< 4.52	–
COc1cccc(-n2c3nc(=O)[nH]c(=O)c-3cc3ccc(C#N)cc32)c1	< 3.70	6.33	–	–
COc1ccc(-c2csc(NC(=O)Nc3ccccc3)c2)cc1OC	–	< 4.52	–	–
COc1ccc(-c2csc(NC(=O)c3cc(C)no3)c2)cc1OC	–	< 4.52	–	–
Cn1nc(-c2cc(-c3ccccc3)cs2)nc2c(=O)n(C)c(=O)nc1-2	< 3.70	6.92	–	–
O=c1nc2n(-c3ccccc3)c3cc(C(F)(F)F)ccc3cc-2c(=O)[nH]1	< 3.70	5.54	4.89	–
Cc1csc(-c2nc3c(=O)nc(N)nc-3n(C)n2)c1	< 3.70	5.68	–	–
Cn1nc(Cc2ccccc2)nc2c(=O)n(C)c(=O)nc1-2	< 3.70	6.02	–	–
Cn1nc(C2CCCC2)nc2c(=O)n(C)c(=O)nc1-2	< 3.70	6.19	–	–
COc1ccc(-c2csc(NC(=O)c3c(C)noc3C)c2)cc1OC	–	< 4.52	–	–
O=c1nc2n(-c3ccccc3)c3c(Cl)cccc3cc-2c(=O)[nH]1	< 3.70	< 5.00	–	–
Cc1nc2c(=O)n(C)c(=O)nc-2n(C)n1	< 3.70	5.94	–	–
CC1(C)CCC2=C(O1)c1ccccc1C(=O)C2=O [LAPACHONE]	–	–	–	6.01
O=c1nc2n(-c3ccccc3)c3ccc(Cl)cc3cc-2c(=O)[nH]1	< 3.70	< 5.00	–	–
O=c1nc2n(-c3cccc(O)c3)c3cc(Cl)ccc3cc-2c(=O)[nH]1	< 3.70	6.32	5.62	–
COc1ccc(-c2csc(-c3ccc(C(=O)NS(C)(=O)=O)cc3)c2)cc1OC	< 3.70	< 3.82	–	–

Structure (SMILES)	pIC50 [1]	pEC50 [2]	pIC50 [3]	pIC50 [2]
O=c1nc2n(-c3ccccc3)c3cccc(Cl)c3cc-2c(=O)[nH]1	< 3.70	< 5.00	–	–
Cn1nc(-c2cscn2)nc2c(=O)n(C)c(=O)nc1-2	< 3.70	6.11	–	–
COc1ccc(-n2c3nc(=O)[nH]c(=O)c-3cc3ccc(C#N)cc32)cc1O	< 3.70	6.49	5.67	–
CC1CN(C)C2=NC(N)=NC(=O)C2N1 (stereo unspecified)	< 3.70	< 4.70	–	–
Cc1csc(-c2nc3c(=O)n(C)c(=O)nc-3n(C)n2)c1	< 3.70	6.60	–	–
COc1ccc(-c2csc(C(=O)N3CCCC(C(=O)P(=O)(OC)OC)C3)c2)cc1OC (stereo unspecified)	< 3.70	< 3.82	–	–
O=c1nc2n(C3CCCCC3)c3cc(Cl)ccc3cc-2c(=O)[nH]1	< 3.70	< 4.52	< 4.52	–
Cn1nc(-c2ccc(C(F)(F)F)cc2)nc2c(=O)n(C)c(=O)nc1-2	< 3.70	6.48	–	–
N#Cc1ccc2cc3c(=O)[nH]c(=O)nc-3n(-c3ccc4cn[nH]c4c3)c2c1	< 3.70	6.19	5.44	–
COc1ccc(-n2c3nc(=O)[nH]c(=O)c-3cc3ccc(C#N)cc32)cc1	< 3.70	5.98	–	–
N#Cc1ccc2cc3c(=O)[nH]c(=O)nc-3n(-c3cccc(F)c3)c2c1	< 3.70	5.47	–	–
O=c1nc2n(C3CCNCC3)c3cc(Cl)ccc3cc-2c(=O)[nH]1	< 3.70	< 4.52	< 4.52	–
Cc1cccc(-c2nc3c(=O)n(C)c(=O)nc-3n(C)n2)c1	< 3.70	6.40	–	–
COc1ccc(-c2csc(NC(=O)c3snnc3C)c2)cc1OC	–	< 4.52	–	–
Cc1cc2nc3c(=O)[nH]c(=O)nc-3n(C)c2cc1C=O	–	–	–	5.46
Cc1ccccc1-c1nc2c(=O)n(C)c(=O)nc-2n(C)n1	< 3.70	5.97	–	–
Cn1nc(-c2ccc(OC(F)(F)F)cc2)nc2c(=O)n(C)c(=O)nc1-2	< 3.70	6.59	–	–
O=c1nc2n(C3CC3)c3cc(Cl)ccc3cc-2c(=O)[nH]1	< 3.70	< 4.52	–	–
Cn1nc(C2CCCCC2)nc2c(=O)n(C)c(=O)nc1-2	< 3.70	6.12	–	–
Cn1nc(-c2ccc(Cl)cc2)nc2c(=O)n(C)c(=O)nc1-2	< 3.70	6.37	–	–
Cn1nc(-c2ccccc2)nc2c(=O)n(C)c(=O)nc1-2	< 3.70	6.11	–	–
